These results are taken from publication PMC8869400, “Inhibition Mechanism of Components Isolated from Morus alba Branches on Diabetes and Diabetic Complications via Experimental and Molecular Docking Analyses” (Antioxidants, 2022).

One assay relates to AGE formation. The assay is described as follows: In vitro assay for inhibition of AGE formation (BSA-fructose/glucose fluorescence). In kind it is biochemical. To be noted: for IC50: read-out: AGEs IC50. How it is done: The inhibition of AGE formation was evaluated using a modification of a previously published method. To prepare the reaction solution, 10 mg/mL of bovine serum albumin was added to 0.2 M fructose, 0.2 M glucose, and […] sodium azide. The reaction solution was mixed with various concentrations of the samples dissolved in 10% DMSO until the total volume was 1 mL. After an 8-day incubation at 37 °C, the fluorescence intensity of the reaction products was measured using a VERSA MAX GEMINI XPS fluorescence microplate reader (Molecular Devices) with excitation and emission wavelengths of 350 nm and 450 nm, respectively. After obtaining the results, we determined the IC50 values as the result on day 4. Aminoguanidine hydrochloride was used as the positive control.

Assay [1] deals with T1, PTP1B (Homo sapiens, UniProt P18031).
T1 construct: purchased Enzo Life Sciences
T1 sequence (P18031 1-435): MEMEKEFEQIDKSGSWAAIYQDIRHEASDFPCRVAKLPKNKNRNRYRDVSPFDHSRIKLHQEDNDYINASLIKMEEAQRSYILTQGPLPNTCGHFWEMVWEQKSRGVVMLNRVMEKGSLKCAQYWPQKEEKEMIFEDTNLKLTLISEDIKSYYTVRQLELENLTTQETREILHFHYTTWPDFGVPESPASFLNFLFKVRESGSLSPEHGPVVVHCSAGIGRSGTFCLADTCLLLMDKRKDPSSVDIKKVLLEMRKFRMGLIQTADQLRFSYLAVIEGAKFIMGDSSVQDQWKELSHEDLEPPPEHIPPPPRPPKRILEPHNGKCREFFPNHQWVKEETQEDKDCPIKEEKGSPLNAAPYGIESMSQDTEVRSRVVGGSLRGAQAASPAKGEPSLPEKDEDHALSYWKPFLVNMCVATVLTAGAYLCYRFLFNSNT
The assay is described as follows: In vitro assay for PTP1B inhibitory activity (pNPP). In kind it is biochemical.

A short description of assay [2]: In vitro assay for peroxynitrite scavenging activity (DHR 123). To be noted: mean ± SD of triplicate experiments; for IC50: read-out: ONOO− IC50. As for the experimental part:
The ONOO^− scavenging activity assay was conducted using a previously published method that involved measuring highly fluorescent rhodamine 123, which is rapidly converted from non-fluorescent DHR 123 in the presence of ONOO^−. Briefly, the rhodamine buffer (pH 7.4) was composed of 100 μM DTPA and 5 μM DHR 123. The assay buffer was prepared prior to use and placed on ice. The fluorescence intensity of the oxidized DHR 123 in the background and sample was measured 30 s after treatment with (and without) 200 μM authentic ONOO^−. The fluorescence intensity of the oxidized DHR 123 was measured using a VERSA MAX GEMINI XPS fluorescence microplate reader (Molecular Devices., CA, USA) at excitation and emission wavelengths of 485 and 530 nm, respectively. L-Penicillamine was used as the positive control.

In another assay the target is T2, α-glucosidase (Saccharomyces cerevisiae, UniProt P53341).
T2 construct: purchased Sigma-Aldrich Chemical Company
T2 sequence (P53341 whole entry): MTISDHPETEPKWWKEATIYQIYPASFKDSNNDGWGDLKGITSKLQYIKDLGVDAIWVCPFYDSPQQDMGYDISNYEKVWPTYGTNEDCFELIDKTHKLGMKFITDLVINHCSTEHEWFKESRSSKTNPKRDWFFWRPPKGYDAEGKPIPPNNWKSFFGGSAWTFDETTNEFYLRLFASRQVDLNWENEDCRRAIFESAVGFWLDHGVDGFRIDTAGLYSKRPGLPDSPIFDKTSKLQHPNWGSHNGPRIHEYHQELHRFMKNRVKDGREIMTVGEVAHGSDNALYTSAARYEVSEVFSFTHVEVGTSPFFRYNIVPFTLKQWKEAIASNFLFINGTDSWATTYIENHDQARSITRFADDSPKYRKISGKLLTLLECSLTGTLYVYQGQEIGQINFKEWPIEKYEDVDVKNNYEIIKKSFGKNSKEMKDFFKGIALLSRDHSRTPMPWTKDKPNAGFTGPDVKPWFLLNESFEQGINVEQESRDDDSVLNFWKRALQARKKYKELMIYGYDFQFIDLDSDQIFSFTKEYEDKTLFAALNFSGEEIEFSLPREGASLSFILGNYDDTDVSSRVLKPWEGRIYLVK
Description: Kinetic study for α-glucosidase inhibition (Lineweaver–Burk and Dixon plots). The format is biochemical. To be noted: for α-Glucosidase Inhibition Mode: determined using Lineweaver–Burk plots.

The target in assay [3] is T1, PTP1B. The settings on record: at 20 μg/mL; ref 43 (Zhao et al.); cited from earlier work.
Assay [4] has as its target T1, PTP1B. Description: Kinetic study for PTP1B inhibition (Lineweaver–Burk and Dixon plots). The settings on record: for PTP1B Inhibition Mode: determined using Lineweaver–Burk plots. In kind it is biochemical.
[5] abbreviates: mean ± SD of triplicate experiments, result on day 4.
Where [6] appears, read: mean ± SD of triplicate experiments, read-out: PTP1B IC50.
Setting [7] is: determined using Dixon plots, read-out: α-Glucosidase Ki.
[8] abbreviates: determined using Dixon plots, read-out: PTP1B Ki.

Each structure is given as a SMILES string. Converted amounts (≈) assume the structure as drawn. Read-outs that look alike come from different tables or passages of the source.

Turning to `Cl.N=C(N)NN` [Aminoguanidine, Aminoguanidine hydrochloride, reference compound], in the assay with AGE formation (setting [5]), the “IC50 Values AGEs” value is 52.62 ± 6.70 µg/mL and the IC50 was 890 ± 70.2 µM.
Regarding `O=C1c2c(O)cc(O)cc2O[C@H](c2ccc(O)cc2O)[C@H]1O` [Dihydromorin (3), Dihydromorin], the IC50 at PTP1B [1] (setting [6]) worked out at 180 µM; in the assay on AGE formation (setting [5]) it was 118 ± 7.89 µM; in assay [2], 2.26 ± 0.12 µM. Also, the Ki on α-glucosidase (setting [7]) was determined as 10.2 µM. Besides, at α-glucosidase, the “α-Glucosidase Inhibition Mode” value was “Mixed”.
For the molecule `CC(C)=CCc1c(-c2ccc(O)cc2O)oc2c(CC=C(C)C)c(O)cc(O)c2c1=O` [Kuwanon C (1), Kuwanon C], at PTP1B [3], the PTP1B inhibition is reported as 58%. The Ki on PTP1B [4] (setting [8]) turned out to be 39.4 µM; on α-glucosidase (setting [7]) it was 6.85 µM. Also, the “PTP1B Inhibition Mode” value on PTP1B [4] is “Non-competitive”. Further, the IC50 at PTP1B [1] (setting [6]) was 41.4 ± 1.64 µM; in the assay on AGE formation (setting [5]), over 100 µM; in assay [2], 12.9 ± 0.68 µM. For the same molecule, the “inhibitory activity on AGE formation” value with AGE formation (at 100 μg/mL) is “no inhibitory activity on AGE formation”. Besides, on α-glucosidase, the “α-Glucosidase Inhibition Mode” value is “Mixed”.
Regarding `CC(C)=CCc1c(-c2ccc(O)cc2O)oc2c(C3C=C(C)CC(c4ccc(O)cc4O)C3C(=O)c3ccc(O)cc3O)c(O)cc(O)c2c1=O` (stereo not drawn) [Kuwanon G (7), Kuwanon G], the Ki at PTP1B [4] (setting [8]) was 12.4 µM; on α-glucosidase, 2.03 µM. The “PTP1B Inhibition Mode” value was “Mixed” on PTP1B [4] and “mixed-type” at PTP1B [4] (listed as kuwanon G (7)). In addition, the IC50 at PTP1B [1] (setting [6]) is 16.2 ± 0.29 µM; in the assay with AGE formation (setting [5]), 69.1 ± 1.49 µM; in assay [2] it was 6.35 ± 0.36 µM. In addition, on α-glucosidase, the “α-Glucosidase Inhibition Mode” value is given as “Mixed”.
Consider `CC(C)(S)[C@H](N)C(=O)O` [L-Penicillamine, reference compound], for which, in assay [2], the “IC50 Values ONOO−” value is 1.37 ± 0.19 µg/mL (≈ 9.18 µM) and the IC50 came out at 6.69 ± 0.52 µM.
Take `Oc1cc(O)cc(-c2cc3ccc(O)cc3o2)c1` [Moracin M (2), Moracin M]: the IC50 worked out at 333 ± 20.5 µM on PTP1B [1] (setting [6]), 2.1 ± 0.22 µM with AGE formation (setting [5]) and 1.08 ± 0.04 µM in assay [2]. Also, the Ki on α-glucosidase (setting [7]) came out at 3.32 µM. The “α-Glucosidase Inhibition Mode” value on α-glucosidase is “Mixed”.
With `O=c1cc(-c2ccc(O)cc2O)oc2cc(O)cc(O)c12` [Norartocarpetin (6), Norartocarpetin], the PTP1B inhibition at PTP1B [3] is recorded as 20%. Also, the PTP1B-inhibitory activity entry on PTP1B [1] (at 100 μg/mL) was “no PTP1B-inhibitory activity”. Also, the IC50 on PTP1B [1] (mean ± SD of triplicate experiments, read-out: IC50 Values PTP1B) is over 349 µM; on PTP1B [1] (setting [6]) it was over 100 µM; with AGE formation (setting [5]) it was 77.3 ± 9.58 µM; in assay [2], 3.01 ± 0.15 µM. Further, the inhibitory constant (Ki) on α-glucosidase (setting [7]) is 19.9 µM. Besides, at α-glucosidase, the “α-Glucosidase Inhibition Mode” value is “Mixed”.
Take `Oc1cc(O)cc(/C=C/c2ccc(O)cc2O)c1` [Oxyresveratrol (5), Oxyresveratrol]: the Ki on PTP1B [4] is 2.16 µM; on α-glucosidase it was 1.14 µM. Also, the IC50 on PTP1B [1] (PTP1B IC50, mean ± SD of triplicate experiments) is 2.85 ± 0.3 µM; in the assay on AGE formation (setting [5]), 7.56 ± 0.15 µM; in assay [2] it was 2.37 ± 0.21 µM. For the same molecule, the “α-Glucosidase Inhibition Mode” value on α-glucosidase is recorded as “Mixed”.

One may read the IC50 as the point on the concentration scale where inhibition reaches its midpoint. The term Ki denotes a measure of affinity in units of concentration, obtained from inhibition or displacement.
